Results on one molecule are retold here after patent publication US11021507B2, “Myricetin derivative and preparing method thereof, and application of same for treating colitis, preventing and treating colitis tumorigenesis, and treating colorectal cancer” (MARINE BIOMEDICAL RESEARCH INSTITUTE OF QINGDAO CO., LTD., priority 2016, dated 2021).

One data set deals with KM mice. In words: Acute toxicity experiment, maximum tolerated dose in mice. Type of data set: in vivo. Here is the method: Acute Toxicity Experiment on Myricetin Derivative M10, Testing Maximum Tolerated Dose in Mice.
Animal germ line: KM mice
The KM mice with quarantine conformity were selected for the experiment. 10 mice weighing 18 g-22 g each after fasting were randomly selected, labeled and housed in separate cages.
In accordance with the acute toxicity testing method in Healthy Food Inspection and Evaluation Technical Specifications (2003 edition), sample solutions were prepared and administered twice intragastrically within 24 hours with the maximum dose of 20 mL/kg. Mice were monitored 1, 4, 8, 24, 48, 72, 96, 120, 144, 168 and 336 hours respectively after drug administration, and the maximum tolerable dose in mice was calculated if no mouse died.

Data set [1] deals with azomethane (AOM)/dextran sulfate sodium (DSS)-induced chronic ulcerative colitis and inflammation-associated tumorigenesis. In words: AOM/DSS-induced chronic ulcerative colitis and inflammation-associated tumorigenesis in mice. Type of data set: in vivo, C57BL/6 mice. An excerpt:
Determination of therapeutic effect of myricetin derivative M10 on azomethane (AOM)/dextran sulfate sodium (DSS)-induced chronic ulcerative colitis and inflammation-associated tumorigenesis.
Compound tested and control drugs: myricetin derivative M10, control compound myricetin, aspirin (Sigma).
Experimental animals: C57BL/6 mice, 20 to 22 g, both male and female, SPF grade provided by Beijing Vital Lihua Experimental Animal Company, and mice were fed with standard animal feed.
Animal models of AOM/DSS-induced chronic colitis and inflammation-associated tumorigenesis: 48 C57BL/6 mice were randomly divided into six groups with eight mice in each group, including model group, for which 0.5% CMC-Na was administered intragastrically every day; aspirin group, for which 100 mg/kg of aspirin (dissolved in 0.5% CMC-Na) was administered intragastrically; myricetin control group, for which 100 mg/kg of myricetin (dissolved in 0.5% CMCNa) was administered intragastrically; M10 high dose group, for which 100 mg/kg of M10 (dissolved in pure water) was administered intragastrically; M10 medium dose group, for which 50 mg/kg of M10 (dissolved in pure water) was administered intragastrically; M10 low dose group, for which 25 mg/kg of M10 (dissolved in pure water) was administered intragastrically.
Preparation of chronic ulcerative colitis mice model: said groups of mice were intraperitoneally injected with 10 mg/kg of azoxymethane (AOM) on day one. Purified drinking water containing 2% dextran sulfate sodium (DSS) was freshly made and provided on day one and on the next six consecutive days, the replaced by purified drinking water for the next seven consecutive days. The above procedure was then repeated for 3 more times.
M10-treated group: 200 mg of M10 was weighed and dissolved in 10 mL of 0.5% CMC-Na solution (20 mg/mL), and consecutively diluted 2 times and 5 times for future use. 0.2 mL of each prepared solutions was given intragastrically to mice (the body weight was assumed as 20 g per mouse), namely divided into high, medium or small dose groups. Myricetin control group: 200 mg of myricetin was weighed and dissolved in 10 mL of 0.5% CMC-Na. Aspirin-treated group: 200 mg of aspirin was weighed and dissolved in 10 mL of 0.5% CMC-Na. Administration method: The body weight of mice was measured daily, and drugs were administered at 0.01 mL/g (100 mg/kg) per day for 12 consecutive weeks. 4. Animal observation and treatment methods: weight, diet, diarrhea (or bloody stools) etc. were observed daily.
At the end of the experiment, mice were sacrificed. The colon and small intestine were dissected out for visual observation and pathological analysis. Pathological examination methods and evaluation criteria: the mice colons of each group were fixed with 10% formalin, followed by routine paraffin embedding, sectioning and HE staining. The developmental degree of colonic inflammation and colon cancer in each group of mice was evaluated under microscopic observation.

Data set [2] has as its system signaling molecules ATG3, ATG5, ATG7, ATG12, and ATG1611. The data set is described as follows: Cellular autophagy caused by AOM/DSS-induced endoplasmic reticulum stress in colonic epithelial cells (FIG. 10). Type of data set: in vivo, C57BL/6 mice. The text has this:
FIG. 10 illustrates the mechanism of M10 in inhibiting cellular autophagy and colonic epithelial cell proliferation and carcinogenesis caused by AOM/DSS-induced endoplasmic reticulum stress in Example 13;

Data set [3] concerns endoplasmic reticulum stress signaling molecules GRP78, ATF6, PelF-2a and IREa. The data set is described as follows: AOM/DSS-induced endoplasmic reticulum stress in mouse colon (FIG. 9). It is filed as in vivo, C57BL/6 mice. An excerpt:
FIG. 9 illustrates the mechanism of M10 in inhibiting endoplasmic reticulum stress induced by AOM/DSS in Example 13;

Data set [4] is described as follows: Water solubility test (equilibrium solubility in pure water, LC/MS). Conditions: 37° C. Type of data set: physicochemical. As to the method:
Water solubility test for myricetin derivative M5, M6 and M10
Instrument: Waters Alliance e2695 LC/MS; chromatographic column: Waters×Bridge C18 4.6×150 mm.
Appropriate amount of said myricetin derivative was weighed and dissolved in methanol to prepare a solution of 1 mg/ml respectively, which was diluted with methanol to different concentrations of working solution as standard samples for testing.
2. 1 mL of ultrapure water was added into a 1.5 ml transparent EP tube. Appropriate amount of said myricetin derivative was each added into a transparent EP tube, followed by vortex mixation and ultrasonication till the drug was no longer dissolved (the solution appeared cloudy or had suspended particles). The mixture was then placed in an incubating oscillator for shaking at the temperature of (37±1) ° C., 100 r/min, for 24 hours, to achieve a sufficient solubility balance. 24 hours later, the saturated solution was taken out for centrifugation at 3000 r/min for 15 min. The supernatant was immediately filtered through a 0.45 μm microporous membrane, and the initial part of the filtrate was discarded. Samples were added for chromatography. The peak area was measured and the equilibrium solubility of each compound in pure water was calculated using a standard curve.

Usually solubility stands for how much of the substance goes into solution per volume. High values mean much dissolved substance, low ones little dissolved substance. For `O=c1c(O[C@@H]2O[C@H](CO)[C@@H](O[C@@H]3O[C@H](CO)[C@H](O)[C@H](O)[C@H]3O)[C@H](O)[C@H]2O)c(-c2cc(O)c(O)c(O)c2)oc2cc(O)cc(O)c12` [M10], the “Maximum tolerable dose in mice” value in the data set on KM mice (administered twice intragastrically within 24 hours, 0.02 mL/g, 250 mg/mL, 14 days observation) was “more than 5 g/kg”. Moreover, the “Toxicity during whole observation period” value in the data set on KM mice (fourteen days observation) is recorded as “no obvious toxicity”. Further, the Death entry in the data set on KM mice (mouse, in vivo) is “No death”. Also, in data set [1] (100 mg/kg aspirin or myricetin, M10 25-100 mg/kg, 12 weeks, FIG. 8), the “Pathological analysis of colon tissue (colon cancer)” value is “significant activity of preventing and treating colon cancer”. In data set [1] (M10 25, 50 and 100 mg/kg intragastrically, 12 weeks), the “Symptoms of AOM/DSS-induced chronic colitis (body weight loss, loose stools, blood in stool)” value was “significantly alleviated”. For the same molecule, the “Number of colon tumor nodules” value in data set [1] (all doses (25, 50, 100 mg/kg), after 12 weeks, FIG. 6 and FIG. 7) is “significantly reduced”. Further, the “Loss of body weight induced by AOM/DSS” value in data set [1] (intragastric, 12 weeks, week 10 to 12, FIG. 4) was “significantly prevented”. Further, the “Autophagic vacuoles in colonic epithelial cells with mitochondrial swelling” value in data set [2] (FIG. 10A) is on record as “significantly alleviated”. Moreover, the “Activation of signaling molecules ATG3, ATG5, ATG7, ATG12 and ATG1611” value in data set [2] (FIG. 10B) was “significantly inhibited”. In addition, the “Swollen endoplasmic reticulum membrane, irregular fracture arrangement” value in data set [3] (FIG. 9A) is “significantly alleviated”. Also, in data set [3] (FIG. 9B), the “Activation of stress signaling molecules GRP78, ATF6, PelF-2a and IREa” value was “significantly inhibited”. Further, in data set [4] (24 h, per Table 2), the “Solubility (in words)” value is “excellent solubility”. The molecule also returned a solubility at 24 h in data set [4] (ultrapure water, thermodynamic from solid) greater than 100 mg/mL.
